What was measured:
[1] = biological target: Voltage-dependent L-type calcium channel subunit alpha-1C (Homo sapiens, UniProt Q13936); format: functional, cell-based
[2] = biological target: Sodium channel protein type 5 subunit alpha (Homo sapiens, UniProt Q14524); format: functional, cell-based
D(1A) dopamine receptor = D(1A) dopamine receptor (Homo sapiens, UniProt P21728)
[3] = biological target: 5-hydroxytryptamine receptor 2B (Homo sapiens, UniProt P41595)
[4] = biological target: T1, Muscarinic acetylcholine receptor M1 (Homo sapiens, UniProt P11229); format: functional, cell-based
T1 sequence (P11229 whole entry): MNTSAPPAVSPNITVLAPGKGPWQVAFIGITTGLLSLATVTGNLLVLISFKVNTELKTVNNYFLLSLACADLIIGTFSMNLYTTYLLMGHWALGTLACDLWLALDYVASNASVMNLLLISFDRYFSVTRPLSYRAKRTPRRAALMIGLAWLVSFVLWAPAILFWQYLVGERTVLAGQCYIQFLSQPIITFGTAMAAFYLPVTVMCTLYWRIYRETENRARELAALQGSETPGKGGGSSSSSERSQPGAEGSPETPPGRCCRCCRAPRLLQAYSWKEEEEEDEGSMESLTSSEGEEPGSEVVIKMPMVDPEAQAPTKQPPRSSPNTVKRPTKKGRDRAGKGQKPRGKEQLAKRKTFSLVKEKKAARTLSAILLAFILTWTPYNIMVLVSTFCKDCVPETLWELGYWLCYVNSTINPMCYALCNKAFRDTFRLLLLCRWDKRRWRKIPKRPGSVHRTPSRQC

[5] = biological target: T2, Prostaglandin G/H synthase 1 (Rattus norvegicus, UniProt Q63921); format: functional
T2 sequence (Q63921 whole entry): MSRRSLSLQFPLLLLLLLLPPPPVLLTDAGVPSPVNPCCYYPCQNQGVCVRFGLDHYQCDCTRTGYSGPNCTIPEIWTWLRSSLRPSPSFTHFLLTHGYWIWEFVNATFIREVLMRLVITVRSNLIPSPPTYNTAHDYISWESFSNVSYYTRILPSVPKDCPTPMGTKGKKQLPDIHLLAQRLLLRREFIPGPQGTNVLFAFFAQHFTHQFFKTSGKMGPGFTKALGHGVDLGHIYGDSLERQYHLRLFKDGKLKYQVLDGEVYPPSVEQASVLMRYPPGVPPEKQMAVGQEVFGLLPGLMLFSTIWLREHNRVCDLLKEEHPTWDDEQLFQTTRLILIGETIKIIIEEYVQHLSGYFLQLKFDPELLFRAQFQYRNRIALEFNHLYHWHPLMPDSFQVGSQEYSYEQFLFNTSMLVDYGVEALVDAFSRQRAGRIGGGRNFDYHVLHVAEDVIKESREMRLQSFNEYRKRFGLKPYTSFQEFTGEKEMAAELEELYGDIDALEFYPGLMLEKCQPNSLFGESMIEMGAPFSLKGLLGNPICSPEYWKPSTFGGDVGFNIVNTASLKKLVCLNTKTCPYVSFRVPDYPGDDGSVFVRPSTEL

[6] = biological target: Rod cGMP-specific 3',5'-cyclic phosphodiesterase subunit alpha (Homo sapiens, UniProt P16499); format: functional
D(1B) dopamine receptor = D(1B) dopamine receptor (Homo sapiens, UniProt P21918)
Substance-K receptor = biological target: T3, Substance-K receptor (Homo sapiens, UniProt P21452)
T3 sequence (P21452 whole entry): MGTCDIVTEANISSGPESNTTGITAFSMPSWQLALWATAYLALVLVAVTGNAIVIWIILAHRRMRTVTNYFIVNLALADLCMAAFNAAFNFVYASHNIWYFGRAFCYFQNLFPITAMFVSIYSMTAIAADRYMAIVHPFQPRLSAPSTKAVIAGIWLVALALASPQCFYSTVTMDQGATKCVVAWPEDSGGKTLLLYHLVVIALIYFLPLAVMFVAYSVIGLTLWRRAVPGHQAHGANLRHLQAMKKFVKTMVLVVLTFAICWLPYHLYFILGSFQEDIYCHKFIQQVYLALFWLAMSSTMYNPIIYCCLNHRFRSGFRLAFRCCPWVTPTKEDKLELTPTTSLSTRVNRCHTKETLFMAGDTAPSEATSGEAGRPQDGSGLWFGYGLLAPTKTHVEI

Thromboxane A2 receptor = biological target: T4, Thromboxane A2 receptor (Homo sapiens, UniProt P21731); format: functional
T4 sequence (P21731 whole entry): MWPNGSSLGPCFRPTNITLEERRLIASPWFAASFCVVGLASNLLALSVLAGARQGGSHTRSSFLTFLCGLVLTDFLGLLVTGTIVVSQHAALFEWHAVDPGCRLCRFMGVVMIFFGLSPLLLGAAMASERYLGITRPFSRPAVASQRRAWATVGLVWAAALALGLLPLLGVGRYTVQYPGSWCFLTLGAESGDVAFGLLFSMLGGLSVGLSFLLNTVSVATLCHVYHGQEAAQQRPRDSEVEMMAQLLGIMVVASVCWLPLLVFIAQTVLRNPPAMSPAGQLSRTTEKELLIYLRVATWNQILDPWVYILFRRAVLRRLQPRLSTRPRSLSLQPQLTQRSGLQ

[7] = biological target: T5, Muscarinic acetylcholine receptor M4 (Homo sapiens, UniProt P08173)
T5 sequence (P08173 whole entry): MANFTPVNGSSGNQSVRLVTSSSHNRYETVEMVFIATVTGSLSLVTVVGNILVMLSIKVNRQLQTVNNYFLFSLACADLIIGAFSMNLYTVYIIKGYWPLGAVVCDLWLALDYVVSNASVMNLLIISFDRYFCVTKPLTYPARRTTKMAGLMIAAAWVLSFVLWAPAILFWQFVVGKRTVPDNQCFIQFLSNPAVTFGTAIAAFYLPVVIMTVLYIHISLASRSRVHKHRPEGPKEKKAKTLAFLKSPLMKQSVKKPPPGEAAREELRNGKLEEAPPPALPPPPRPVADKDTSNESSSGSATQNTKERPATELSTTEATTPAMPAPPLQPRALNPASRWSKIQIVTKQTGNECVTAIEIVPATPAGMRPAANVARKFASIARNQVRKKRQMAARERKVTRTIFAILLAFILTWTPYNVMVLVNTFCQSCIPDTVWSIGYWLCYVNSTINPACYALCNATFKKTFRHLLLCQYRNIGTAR
Further: assay procedure not described here.

Sequence of D(1B) dopamine receptor (P21918 whole entry): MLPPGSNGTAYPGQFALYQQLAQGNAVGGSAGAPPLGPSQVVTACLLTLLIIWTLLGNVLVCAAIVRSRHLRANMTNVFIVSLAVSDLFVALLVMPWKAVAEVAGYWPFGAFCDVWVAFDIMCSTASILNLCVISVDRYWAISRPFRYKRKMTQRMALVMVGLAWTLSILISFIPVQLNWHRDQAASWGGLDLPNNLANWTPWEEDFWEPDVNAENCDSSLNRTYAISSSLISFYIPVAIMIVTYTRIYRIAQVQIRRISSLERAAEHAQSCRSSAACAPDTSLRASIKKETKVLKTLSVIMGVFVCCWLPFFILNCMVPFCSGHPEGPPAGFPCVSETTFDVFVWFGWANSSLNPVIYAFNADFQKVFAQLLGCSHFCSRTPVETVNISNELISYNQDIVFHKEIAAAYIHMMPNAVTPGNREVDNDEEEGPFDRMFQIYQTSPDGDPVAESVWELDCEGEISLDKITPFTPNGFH
Sequence of Sodium channel protein type 5 subunit alpha (Q14524 whole entry): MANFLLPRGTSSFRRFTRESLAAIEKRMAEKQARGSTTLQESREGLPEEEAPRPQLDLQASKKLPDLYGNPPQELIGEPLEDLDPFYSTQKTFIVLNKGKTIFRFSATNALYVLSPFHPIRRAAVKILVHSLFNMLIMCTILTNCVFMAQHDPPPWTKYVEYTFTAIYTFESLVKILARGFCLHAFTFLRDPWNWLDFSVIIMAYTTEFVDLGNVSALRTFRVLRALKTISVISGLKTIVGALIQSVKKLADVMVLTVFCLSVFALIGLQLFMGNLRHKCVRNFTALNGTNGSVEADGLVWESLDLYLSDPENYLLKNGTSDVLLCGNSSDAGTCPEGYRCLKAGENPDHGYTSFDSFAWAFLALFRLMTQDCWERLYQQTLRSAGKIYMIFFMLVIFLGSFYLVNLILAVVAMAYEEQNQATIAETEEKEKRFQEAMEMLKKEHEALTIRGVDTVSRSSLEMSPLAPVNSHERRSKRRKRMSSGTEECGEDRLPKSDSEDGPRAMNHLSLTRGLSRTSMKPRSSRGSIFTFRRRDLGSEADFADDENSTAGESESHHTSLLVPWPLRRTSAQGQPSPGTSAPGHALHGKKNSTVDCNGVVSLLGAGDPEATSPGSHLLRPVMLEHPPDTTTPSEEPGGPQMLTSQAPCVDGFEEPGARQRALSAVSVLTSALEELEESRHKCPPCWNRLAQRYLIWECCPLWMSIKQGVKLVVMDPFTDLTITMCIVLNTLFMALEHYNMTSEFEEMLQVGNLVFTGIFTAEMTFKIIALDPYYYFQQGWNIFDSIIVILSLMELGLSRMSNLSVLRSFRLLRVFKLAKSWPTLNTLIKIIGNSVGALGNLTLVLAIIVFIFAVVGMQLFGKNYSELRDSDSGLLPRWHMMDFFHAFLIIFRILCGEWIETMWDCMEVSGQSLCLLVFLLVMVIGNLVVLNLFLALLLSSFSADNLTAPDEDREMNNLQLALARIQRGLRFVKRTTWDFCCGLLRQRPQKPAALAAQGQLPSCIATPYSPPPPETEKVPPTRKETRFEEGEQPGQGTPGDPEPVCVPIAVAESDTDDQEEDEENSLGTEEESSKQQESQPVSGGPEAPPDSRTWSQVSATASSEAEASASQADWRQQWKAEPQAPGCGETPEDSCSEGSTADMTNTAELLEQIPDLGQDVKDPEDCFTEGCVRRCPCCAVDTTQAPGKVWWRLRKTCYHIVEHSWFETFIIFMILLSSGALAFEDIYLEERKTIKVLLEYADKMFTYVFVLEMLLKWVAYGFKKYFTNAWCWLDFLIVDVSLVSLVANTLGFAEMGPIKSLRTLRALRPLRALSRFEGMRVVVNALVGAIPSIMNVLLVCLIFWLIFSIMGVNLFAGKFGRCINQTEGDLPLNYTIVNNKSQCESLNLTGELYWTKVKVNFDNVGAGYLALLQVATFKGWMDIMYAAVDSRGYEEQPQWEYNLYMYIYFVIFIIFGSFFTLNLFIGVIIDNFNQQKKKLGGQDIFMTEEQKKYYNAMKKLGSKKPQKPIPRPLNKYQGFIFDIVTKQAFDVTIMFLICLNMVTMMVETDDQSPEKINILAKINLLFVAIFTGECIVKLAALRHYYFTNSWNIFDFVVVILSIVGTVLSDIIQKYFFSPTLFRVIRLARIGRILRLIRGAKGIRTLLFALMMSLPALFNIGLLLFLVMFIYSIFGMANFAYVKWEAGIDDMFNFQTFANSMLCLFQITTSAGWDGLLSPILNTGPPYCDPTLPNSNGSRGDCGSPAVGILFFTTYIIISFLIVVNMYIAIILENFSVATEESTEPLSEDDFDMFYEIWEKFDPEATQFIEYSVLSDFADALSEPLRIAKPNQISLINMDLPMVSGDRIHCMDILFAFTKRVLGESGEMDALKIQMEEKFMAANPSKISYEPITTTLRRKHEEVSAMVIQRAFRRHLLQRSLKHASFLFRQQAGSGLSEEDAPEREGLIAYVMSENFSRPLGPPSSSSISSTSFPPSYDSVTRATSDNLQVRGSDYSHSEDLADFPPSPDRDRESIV
Sequence of 5-hydroxytryptamine receptor 2B (P41595 whole entry): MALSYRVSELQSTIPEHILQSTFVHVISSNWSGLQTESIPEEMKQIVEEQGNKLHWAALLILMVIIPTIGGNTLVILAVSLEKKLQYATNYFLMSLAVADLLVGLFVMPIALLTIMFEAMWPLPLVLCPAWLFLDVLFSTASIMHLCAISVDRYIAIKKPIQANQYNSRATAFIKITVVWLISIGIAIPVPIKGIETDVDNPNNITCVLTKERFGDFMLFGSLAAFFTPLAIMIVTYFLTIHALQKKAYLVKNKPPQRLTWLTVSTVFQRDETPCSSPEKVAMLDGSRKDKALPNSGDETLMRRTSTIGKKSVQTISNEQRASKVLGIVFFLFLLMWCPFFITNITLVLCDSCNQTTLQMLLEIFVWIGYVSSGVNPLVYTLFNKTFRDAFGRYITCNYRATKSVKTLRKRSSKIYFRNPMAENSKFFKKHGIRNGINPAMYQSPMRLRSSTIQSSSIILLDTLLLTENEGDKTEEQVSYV
Sequence of Rod cGMP-specific 3',5'-cyclic phosphodiesterase subunit alpha (P16499 whole entry): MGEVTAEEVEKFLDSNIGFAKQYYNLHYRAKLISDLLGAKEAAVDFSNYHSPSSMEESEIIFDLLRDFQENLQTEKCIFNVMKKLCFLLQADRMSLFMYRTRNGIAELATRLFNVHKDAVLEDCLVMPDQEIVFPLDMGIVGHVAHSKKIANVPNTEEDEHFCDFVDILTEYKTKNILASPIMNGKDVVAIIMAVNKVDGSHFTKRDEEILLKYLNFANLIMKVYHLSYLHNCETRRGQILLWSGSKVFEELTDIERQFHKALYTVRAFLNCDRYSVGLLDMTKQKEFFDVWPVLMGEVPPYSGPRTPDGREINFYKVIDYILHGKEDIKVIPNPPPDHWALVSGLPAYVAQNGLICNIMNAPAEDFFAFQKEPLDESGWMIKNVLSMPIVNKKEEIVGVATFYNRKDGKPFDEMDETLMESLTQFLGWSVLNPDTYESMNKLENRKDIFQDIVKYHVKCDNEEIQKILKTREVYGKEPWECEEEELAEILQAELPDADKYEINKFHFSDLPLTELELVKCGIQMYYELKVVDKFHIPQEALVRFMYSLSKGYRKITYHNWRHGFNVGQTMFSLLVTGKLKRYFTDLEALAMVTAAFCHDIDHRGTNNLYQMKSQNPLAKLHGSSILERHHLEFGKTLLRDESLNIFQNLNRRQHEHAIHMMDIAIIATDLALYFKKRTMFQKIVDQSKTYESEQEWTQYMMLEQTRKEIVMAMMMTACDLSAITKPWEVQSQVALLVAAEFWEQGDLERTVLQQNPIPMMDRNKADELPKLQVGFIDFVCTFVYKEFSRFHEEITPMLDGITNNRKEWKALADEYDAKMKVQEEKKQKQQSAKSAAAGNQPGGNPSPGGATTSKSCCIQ
Sequence of D(1A) dopamine receptor (P21728 whole entry): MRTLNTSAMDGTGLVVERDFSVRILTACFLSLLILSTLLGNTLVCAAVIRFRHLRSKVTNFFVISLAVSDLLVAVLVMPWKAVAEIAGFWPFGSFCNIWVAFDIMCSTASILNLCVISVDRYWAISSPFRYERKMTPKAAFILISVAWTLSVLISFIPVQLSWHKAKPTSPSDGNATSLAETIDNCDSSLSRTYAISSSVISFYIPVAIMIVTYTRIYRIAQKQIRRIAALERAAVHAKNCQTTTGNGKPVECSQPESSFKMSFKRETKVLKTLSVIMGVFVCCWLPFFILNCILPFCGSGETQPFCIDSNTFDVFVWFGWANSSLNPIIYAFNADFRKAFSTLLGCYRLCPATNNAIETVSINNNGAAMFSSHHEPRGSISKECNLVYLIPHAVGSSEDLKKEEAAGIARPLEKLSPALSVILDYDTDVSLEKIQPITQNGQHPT

`CC[C@@H](C(N)=O)N1CCCC1=O` gave an AC50 [1] greater than 50 µM and an AC50 [2] greater than 50 µM.

For `CC(=O)c1ccc2c(c1)N(CCCN(C)C)c1ccccc1S2` [ACEPROMAZINE], the AC50 (D(1A) dopamine receptor) was 0.066 µM.

`C=CCN1C[C@H](C(=O)N(CCCN(C)C)C(=O)NCC)C[C@@H]2c3cccc4[nH]cc(c34)C[C@H]21` [CABERGOLINE] showed an AC50 [3] of 0.0148 µM.

Compound `NC1CCN(c2c(F)cc3c(=O)c(C(=O)O)cn(C4CC4)c3c2Cl)C1` (stereo unspecified) [CLINAFLOXACIN] has an AC50 [4] greater than 300 µM.

Work on `CCCCCNC(=N)N/N=C/c1c[nH]c2ccc(OC)cc12` [TEGASEROD] yielded an AC50 [5] greater than 30 µM.

Work on `CCOc1ccccc1OCC1CNCCO1` (stereo unspecified) [VILOXAZINE] yielded an AC50 [6] greater than 10 µM, an AC50 (D(1B) dopamine receptor) greater than 10 µM and an AC50 (Substance-K receptor) greater than 10 µM. For the same compound, the AC50 (Thromboxane A2 receptor) was greater than 30 µM and the AC50 [7] was greater than 10 µM.

From ChEMBL document CHEMBL5291721, “A preclinical secondary pharmacology resource illuminates target-adverse drug reaction associations of marketed drugs” (Nat Commun, 2023)
